Test results published in the CheMixHub ionic liquid set.

Test: xn = mol fraction of the nth substance listed

[Cl-].c1ccc(C[P+](c2ccccc2)(c2ccccc2)c2ccccc2)cc1 + OCCO
Details	electrical conductivity [S/m]	viscosity [mPa·s]
293.15 K, 101 kPa, x1 = 0.083	0.191	60.6
303.15 K, 101 kPa, x1 = 0.08333	–	68.3
313.15 K, 101 kPa, x1 = 0.083	0.298	32.2
313.15 K, 101 kPa, x1 = 0.08333	–	54.2
323.15 K, 100 kPa, x1 = 0.0833	–	38.5
323.15 K, 101 kPa, x1 = 0.08333	–	41.8
333.15 K, 101 kPa, x1 = 0.08333	–	33
338.15 K, 101.3 kPa, x2 = 0.75	0.02	86
343.15 K, 100 kPa, x1 = 0.0833	–	24.6
343.15 K, 101 kPa, x1 = 0.08333	–	24.2
353.15 K, 101 kPa, x1 = 0.08333	–	20.7

[Cl-].c1ccc(C[P+](c2ccccc2)(c2ccccc2)c2ccccc2)cc1 + OCCOCCO
101 kPa, x2 = 0.875
Details	electrical conductivity [S/m]	viscosity [mPa·s]
313.15 K	0.0935	64.2
353.15 K	0.212	17.1

CCCC[N+](CCCC)(CCCC)CCCC.[Cl-] + OCCOCCOCCO
Details	electrical conductivity, 293.15 K [S/m]	electrical conductivity, 303.15 K [S/m]	electrical conductivity, 313.15 K [S/m]	electrical conductivity, 323.15 K [S/m]	electrical conductivity, 333.15 K [S/m]	viscosity, 293.15 K [mPa·s]	viscosity, 303.15 K [mPa·s]	viscosity, 313.15 K [mPa·s]	viscosity, 323.15 K [mPa·s]	viscosity, 333.15 K [mPa·s]
100 kPa, x1 = 0.1667	0.0683	0.099	0.141	0.196	0.268	126	82.6	55.6	38.4	27.1
100 kPa, x1 = 0.333	0.049	0.0739	0.109	0.156	0.219	277	179	119	81.4	56.8
101 kPa, x2 = 0.25	–	–	–	–	–	–	–	–	910	–

CC[n+]1ccn(C)c1.[Cl-] + OCCOCCOCCOCCO
viscosity [mPa·s], 101.3 kPa
Details	298.15 K	303.15 K	313.15 K	323.15 K	333.15 K
x2 = 0.3333	360	266	168	115	83
x2 = 0.5	138	114	83.8	62.7	48.7

CCCC[N+](CCCC)(CCCC)CCCC.[Cl-] + OC[C@@H](O)[C@@H](O)[C@H](O)[C@@H](O)CO + O
100 kPa, x1 = 0.1428, x2 = 0.1428
Details	electrical conductivity [S/m]	viscosity [mPa·s]
293.15 K	0.121	390
303.15 K	0.189	201
313.15 K	0.285	107
323.15 K	0.42	59.8
333.15 K	0.605	34.5

CCCC[N+](CCCC)(CCCC)CCCC.[Cl-] + Oc1ccccc1
Details	viscosity [mPa·s]
323.15 K, 100 kPa, x1 = 0.167	37.2

CCCC[n+]1ccn(C)c1.[Br-] + [Cl-].[Li+] + O
298.15 K, 100 kPa
Details	viscosity [mPa·s]
x2 = 0, x3 = 0.9487	2.21
x2 = 0.008492, x3 = 0.9402	2.41
x2 = 0.01695, x3 = 0.9318	2.56
x2 = 0.02496, x3 = 0.9237	2.73
x2 = 0.02656, x3 = 0.9221	2.81
x2 = 0.03322, x3 = 0.9155	3
x2 = 0.0408, x3 = 0.9079	3.21
